Data set [1] has as its system Aβ. The experiment in a line: h-APPs1 transgenic mouse, Aβ levels. It counts as in vivo. As to conditions: 0.9 mg/kg once every 24 hr, three months. An excerpt:
(§1) Finally, it is important to note that LNK-754-TS had no effect on APP processing and secretion in a cell culture model of pathogenic Aβ production (Selkoe, D. J., et al. Ann N Y Acad Sci 777, 57-64 (1996)).

The test system of data set [2] is LC3-II protein. The experiment in a line: LC3-II protein level in SH-SY5Y cells with or without bafilomycin A1. It counts as cell-based, human. The method, then: The observed increase in LC3-positive autophagosomes could result, in principle, from either an increased flux through the autophagy pathway or decreased autophagosome degradation (Pankiv, S., et al. J Biol Chem 282, 24131-24145 (2007); Kamada, Y., et al. J Cell Biol 150, 1507-1513 (2000)). […] In order to ascertain an increase in autophagic flux, cells were co-treated with LNK-754-TS and an inhibitor of autophagosome-lysosome fusion, bafilomycin A1 (10 nM). Bafilomycin treatment alone caused a 100% increase in the amount of LC3-II, consistent with the fact that it inhibits autophagosome degradation (FIG. 8c).

Data set [3] has as its system TAU441 transgenic mice. Put plainly: Porsolt forced swim task in TAU441 transgenic mice. It is filed as in vivo, mouse. The following applies: 0.09 mg/kg daily for 90 days. An excerpt:
Tests relevant to depression-like behaviors in rodents are primarily stress-induced reductions in avoidance or escape, termed behavioral despair. One of the most widely used animal tests for depression is the Porsolt forced swim task (Porsolt et al., Arch. Int. Pharmacodyn. Ther. 229(2):327-36, 1977; Porsolt et al., Eur. J. Pharmacol. 47(4):379-91, 1978). This study was designed to evaluate the effects of treatment with LNK-754 on behavior of TAU441 transgenic mice. At start of the treatment, the animals were 5 months old. Untreated non-transgenic animals of the same age were tested and sacrificed serving as the baseline group. Mice received vehicle or LNK-754-TS at a dose of 0.09 mg per kg, 7 days a week for 90 days. In the last week of the treatment period and before sacrifice, mice were evaluated using the Porsolt forced swim task (FIG. 10B).

A short description of data set [4]: 3T3H-ras (61 L) xenograft tumor-bearing athymic mouse, continuous infusion 7 days, PK/PD. It is filed as in vivo. As to conditions: intravenous, calculated from minimal continuous serum level of 100 ng/ml, read-out: minimal efficacious AUC. An excerpt:
FIG. 3 provides pharmacokinetic and pharmacodynamic data for continuously infused LNK-754 (CP-609,754) in a 3T3H-ras (61 L) xenograft tumor-bearing athymic mouse (7 day treatment). […] From Pfizer Investigational New Drug Application for CP-609,754, Section 8, Pharmacology and Toxicology, dated Nov. 19, 1999. See also Moulder et al., Clinical Cancer Research 10:7127-7135, Nov. 1, 2004.
Further data supporting the stark difference in dosing levels for efficacy in oncology and synucleinopathies is shown in FIG. 3 and Table 2A below. In the experiment shown in FIG. 3, a xenograft model is once again used, but there is continuous infusion of LNK-754-TS, and thus a steady state concentration of drug in the plasma and tissues.
(§2) In the experimental data represented in Table 2A, a different method of drug delivery is used (oral) than in the experiment represented in FIG. 3. The best way to compare the relative coverage of the two delivery methods (oral and continuous infusion) is by comparing area-under-the-curve (AUC) values. We can compare the calculated AUC values for the continuous infusion oncology study presented in FIG. 3 and the AUC values associated with the synuclein model doses in the table. […] The AUCs of orally dosed LNK-754-TS at 0.9 mg/kg and at 0.09 mg/kg QD are 34.6 and […], respectively.

A short description of data set [5]: Pharmacokinetics of LNK-754-TS in mice, oral. It counts as in vivo, mouse. The following applies: for MRT inf: read-out: MRT(0-∞).
Text: as §2
The pharmacokinetic profiles of LNK-754-TS and Zarnestra® were analyzed using methods known in the art. The results are shown in FIGS. 13-14 and the tables below.

Data set [6] has as its system APP processing and secretion. Put plainly: APP processing and secretion in a cell culture model of pathogenic Aβ production. It is filed as cell-based.
Text: as §1

Data set [7] concerns isolated islets / INS1. Put plainly: Oxygen consumption, Seahorse XF24 bioenergetic assay. It counts as cell-based. The following applies: 1 nM. The method, then:
Impaired mitochondrial function is shown by a decreased rate of oxygen consumption. […] The effect of LNK-754 at 1 nM and 10 nM doses on oxygen consumption was determined. Oxygen consumption in INS1 was measured using a Seahorse XF24 bioenergetic assay. Assays have been previously described in detail (See, Wu M, et al. Am J Physiol Cell Physiol 2007; 292:C125-36).

Data set [8] relates to INS1 cells. Put plainly: Glucolipotoxicity-induced mitochondrial fragmentation in INS1 cells. It is filed as cell-based. The following applies: 1 nM. The method, then:
To determine the effect of LNK-754 on glucolipotoxicity-induced mitochondrial fragmentation, LNK-754 at 1 nM and 100 nM concentrations was cultured with INS1 cells in media containing palmitate according to methods and procedures described in Molina et. al. 2009. […] Treatment with 1 nM LNK-754 results in about a 70% increase in normal mitochondrial morphology in comparison with no treatment with LNK-754. […] Treatment with 1 nM LNK-754 results in about a 55% decrease in fragmentation induced by palmitate. Low dose LNK-754 protected INS1 cells from glucolipotoxicity-induced mitochondrial fragmentation as evident from the striking mitochondrial imaging results.

Where [9] appears, read: C57BL/6, mouse, in vivo, po, 9 mg/kg, Group 5 (9 mg/kg SID), C57BL/6 mice, oral.
The mark [10] stands for this setting: C57BL/6, mouse, in vivo, po, 9 mg/kg, Group 6 (9 mg/kg BID), C57BL/6 mice, oral.
Where [11] appears, read: C57BL/6, mouse, in vivo, po, 9 mg/kg, Group 9 (9 mg/kg Day 5), C57BL/6 mice, oral.

Entries after “also recorded” stand apart in the source; their conditions may differ. Like-named read-outs stand apart in the source and are kept apart here.

Take `C#Cc1cccc(-c2cc(=O)n(C)c3ccc([C@](O)(c4ccc(Cl)cc4)c4cncn4C)cc23)c1` [LNK-754-TS, (R)-6-[(4-chlorophenyl)-hydroxyl-(1-methyl-1-H-imidazol-5-yl)-methyl]-4-(3-ethynylphenyl)-1-methyl-2-(1H)-quinonlinone (2S, 3S)-dihydroxybutanedioate]: in data set [1], the “amounts of more soluble Aβ42 species” value is on record as “small reduction”. The “cortical Aβ immunoreactivity and Aβ in insoluble fractions” value in data set [1] is on record as “did not significantly reduce”. Further, in data set [2] (100 nM in combination with bafilomycin A1 10 nM), the “additional increase in LC3-II over bafilomycin alone” value came to 75%. Also, the “accumulation of LC3-I or LC3-II protein” value in data set [2] (compound alone, without bafilomycin) is listed as “did not cause accumulation”. Also, the “behavior compared with non-transgenic mice, forced swim task” value in data set [3] was “behaved similar to non-transgenic mice; also recorded: behaved similarly to non-tg mice”. Besides, the “floating, forced swim task” value in data set [3] (vs vehicle) was “significantly less floating; also recorded: decreasing floating behavior”. Moreover, the “struggling behavior, forced swim task” value in data set [3] (vs vehicle) is given as “higher percentage of struggling behavior; also recorded: increasing struggling behavior”. For the same compound, the AUC (usually concentration integrated over time) in data set [4] was approximately 2400 ng·h/mL; in data set [5] (0.9 mg/kg oral, QD day 1, 5% beta-cyclodextrin, mice) it was 34.6 ng·h/mL; in data set [5] (C57BL/6, mouse, in vivo, po, 0.09 mg/kg, 0.09 mg/kg oral, QD day 1, 5% beta-cyclodextrin, mice, read-out: AUC), 0.63 ng·h/mL; in data set [5] (C57BL/6, mouse, in vivo, po, 0.9 mg/kg, 0.9 mg/kg oral, QD day 1, 5% beta-cyclodextrin, mice, read-out: AUC) it was 34.6 ng·h/mL; in data set [5] (C57BL/6, mouse, in vivo, po, 9 mg/kg, 9 mg/kg BID oral, mice (text summary of day 1 and day 5), read-out: AUC), 2000 to 2600 ng·h/mL; in data set [5] (C57BL/6, mouse, in vivo, po, 9 mg/kg, 9 mg/kg oral, BID day 1, 20% beta-cyclodextrin, mice, read-out: AUC), 2100 ng·h/mL. In addition, the area under the curve (AUC) in data set [5] (C57BL/6, mouse, in vivo, po, 9 mg/kg, 9 mg/kg oral, BID day 5, 20% beta-cyclodextrin, mice, read-out: AUC) is 2630 ng·h/mL. In addition, the Cmax (as a rule, the maximum level reached in the sampled fluid or tissue) in data set [5] (C57BL/6, mouse, in vivo, po, 0.09 mg/kg, 0.09 mg/kg oral, QD day 1, 5% beta-cyclodextrin, mice) is 0.61 ng/mL; in data set [5] (C57BL/6, mouse, in vivo, po, 0.9 mg/kg, 0.9 mg/kg oral, QD day 1, 5% beta-cyclodextrin, mice), 31.1 ng/mL; in data set [5] (C57BL/6, mouse, in vivo, po, 9 mg/kg, 9 mg/kg oral, BID day 1, 20% beta-cyclodextrin, mice), 1380 ng/mL; in data set [5] (C57BL/6, mouse, in vivo, po, 9 mg/kg, 9 mg/kg oral, BID day 5, 20% beta-cyclodextrin, mice), 1480 ng/mL; in data set [5] (setting [9]), 318 ng/mL; in data set [5] (setting [10]), 1390 ng/mL. In data set [5] (setting [11]), the highest level (Cmax) was 1490 ng/mL. Also, the AUC(0-inf) – broadly, total exposure, with the tail of the curve extrapolated – was determined as 752 ng·h/mL in data set [5] (setting [9]), 2290 ng·h/mL in data set [5] (setting [10]) and 2630 ng·h/mL in data set [5] (setting [11]). Moreover, the AUC(0-t) (as a rule, exposure summed from dosing to a finite time, without extrapolation to infinity) in data set [5] (setting [9]) came to 730 ng·h/mL; in data set [5] (setting [10]) it was 2100 ng·h/mL; in data set [5] (setting [11]), 2630 ng·h/mL. Moreover, the half-life (in general, the time needed for the level to fall by half in the phase considered) is 1.5 h in data set [5] (setting [9]), 5.04 h in data set [5] (setting [10]) and 0.62 h in data set [5] (setting [11]). The MRT inf worked out at 2.38 h in data set [5] (setting [9]), 2.67 h in data set [5] (setting [10]) and 1.43 h in data set [5] (setting [11]). Besides, the Tmax (usually the time at which the peak concentration occurs) in data set [5] (C57BL/6, mouse, in vivo, 0.09 mg/kg oral, QD day 1, 5% beta-cyclodextrin, mice) is 0.5 h; in data set [5] (C57BL/6, mouse, in vivo, 0.9 mg/kg oral, QD day 1, 5% beta-cyclodextrin, mice), 0.5 h; in data set [5] (C57BL/6, mouse, in vivo, 9 mg/kg oral, BID day 1, 20% beta-cyclodextrin, mice), 1 h; in data set [5] (Group 5 (9 mg/kg SID), C57BL/6 mice, oral), 1 h; in data set [5] (Group 6 (9 mg/kg BID), C57BL/6 mice, oral), 1 h; in data set [5] (Group 9 (9 mg/kg Day 5), C57BL/6 mice, oral), 1 h. Further, in data set [6], the “APP processing and secretion” value is recorded as “no effect”.

With `C#Cc1cccc(-c2cc(=O)n(C)c3ccc([C@](O)(c4ccc(Cl)cc4)c4cncn4C)cc23)c1` [LNK-754, (R)-6-[(4-chlorophenyl)-hydroxyl-(1-methyl-1-H-imidazol-5-yl)-methyl]-4-(3-ethynylphenyl)-1-methyl-2-(1H)-quinonlinone], in data set [7], the “oxygen consumption (OCR)” value was “increases oxygen consumption”. Further, the “decrease in fragmentation induced by palmitate” value in data set [8] is given as approximately 55%. Moreover, the “increase in normal mitochondrial morphology” value in data set [8] (palmitate, vs no treatment) is listed as approximately 70%.

The values above are taken from patent US20100331363A1, “TREATMENT OF MITOCHONDRIAL DISORDERS USING A FARNESYL TRANSFERASE INHIBITOR” (Link Medicine Corporation, priority 2008, published 2010).
